Source: ChEMBL document CHEMBL5325396, “Discovery of Novel Acridane-Based Tubulin Polymerization Inhibitors with Anticancer and Potential Immunomodulatory Effects” (J Med Chem, 2023)
pIC50: −log10 of the molar value.

Experiments:
HCT-116 = test: Antiproliferative activity against human HCT-116 cells incubated for 48 hrs by MTT assay; assay type: functional, cell-based; details: HCT-116, 48 h
B16-F10 [1] = test: Antiproliferative activity against mouse B16-F10 cells incubated for 48 hrs by MTT assay; assay type: functional, cell-based; details: B16-F10, 48 h
HepG2 = test: Antiproliferative activity against human HepG2 cells incubated for 48 hrs by MTT assay; assay type: functional, cell-based; details: HepG2, 48 h
HeLa = test: cells; details: Homo sapiens, 48 h
Description: Antiproliferative activity against human HeLa cells incubated for 48 hrs by MTT assay

Tubulin = test: Inhibition of tubulin polymerization (unknown origin); assay type: protein-complex assay, Homo sapiens
[2] = Toxicity in C57 mouse allografted with mouse B16-F10 cells assessed as body weight loss at 10 mg/kg, ip administered consecutively for 14 days; assay type: organism-based; details: in vivo, 336 h, time 14 day
B16-F10 [3] = test: Antitumor activity against mouse B16-F10 cells allografted in C57 mouse assessed as tumor growth inhibition at 10 mg/kg, ip administered consecutively for 14 days; assay type: functional; details: B16-F10, 336 h, time 14 day, read-out: TGI
B16-F10 [4] = test: Immunomodulatory activity in mouse B16-F10 cells allografted in C57 mouse assessed as decrease in PD-L1 level at 10 mg/kg, ip administered consecutively for 14 days relative to control; assay type: functional; parameters: scale not given: the % may be the effect or the level left; details: time 14 day
B16-F10 [5] = test: Immunomodulatory activity in mouse B16-F10 cells allografted in C57 mouse assessed as increase in CD3-positive CD8-positive cells at 10 mg/kg, ip administered consecutively for 14 days (reference value: 6.66 %); assay type: functional; details: time 14 day
B16-F10 [6] = test: Induction of cell cycle arrest in mouse B16-F10 cells assessed as accumulation at G1 phase at 20 nM incubated for 24 hrs by PI staining based flow cytometry (reference value: 52.77 %); assay type: functional
B16-F10 [7] = test: Induction of cell cycle arrest in mouse B16-F10 cells assessed as accumulation at S phase at 20 nM incubated for 24 hrs by PI staining based flow cytometry (reference value: 21.79 %); assay type: functional
B16-F10 [8] = test: Induction of cell cycle arrest in mouse B16-F10 cells assessed as accumulation at G2 phase at 20 nM incubated for 24 hrs by PI staining based flow cytometry (reference value: 23.04 %); assay type: functional
B16-F10 [9] = test: Induction of apoptosis in mouse B16-F10 cells assessed as viable cells at 20 nM incubated for 48 hrs by annexinV-FITC/PI staining based flow cytometry (reference value: 93.6 %); assay type: functional; details: read-out: Activity
B16-F10 [10] = test: Induction of apoptosis in mouse B16-F10 cells assessed as early apoptotic cells at 20 nM incubated for 48 hrs by annexinV-FITC/PI staining based flow cytometry (reference value: 4.25 %); assay type: functional
B16-F10 [11] = test: Induction of apoptosis in mouse B16-F10 cells assessed as late apoptotic cells at 20 nM incubated for 48 hrs by annexinV-FITC/PI staining based flow cytometry (reference value: 2.06 %); assay type: functional
B16-F10 [12] = test: Induction of apoptosis in mouse B16-F10 cells assessed as necrotic cells at 20 nM incubated for 48 hrs by annexinV-FITC/PI staining based flow cytometry (reference value: 0.064 %); assay type: functional

Structure (SMILES)	pIC50 (HCT-116)	pIC50 (B16-F10 [1])	pIC50 (HepG2)	pIC50 (HeLa)	further results
COc1cc(C(=O)N2c3cc(Br)ccc3Cc3c2ccc(C)c3C)cc(OC)c1OC	6.89	7.07	6.97	6.98	
COc1cc(C(=O)N2c3cc(Cl)ccc3Cc3ccc(Cl)cc32)cc(OC)c1OC	< 5.00	5.99	6.15	5.99	
Cc1c(COc2cc(OCc3cccc(C#N)c3)c(CNC(C)(C)C(=O)O)cc2Cl)cccc1-c1ccccc1					Activity [2]: Non-Toxic; inhibition in vivo at 10 mg/kg (B16-F10 [3]): 19%; Activity (B16-F10 [4]): ~45%; Activity (B16-F10 [5]): 14.6%
COc1cc(C(=O)N2c3cc(C)ccc3Cc3ccc(F)cc32)cc(OC)c1OC	6.62	6.56	7.52	6.73	
COc1cc(C(=O)N2c3ccccc3C(c3ccccc3)c3ccccc32)cc(OC)c1OC	< 5.00	< 5.00	< 5.00	< 5.00	
COc1cc(C(=O)N2c3ccccc3Cc3c(C)ccc(C)c32)cc(OC)c1OC	7.21	7.25	7.52	7.31	
COc1cc2c(c(OC)c1OC)-c1ccc(OC)c(=O)cc1[C@@H](NC(C)=O)CC2 [COLCHICINE]		7.06	7.60	6.90	Activity (B16-F10 [6]): 10.06%; Activity (B16-F10 [7]): 33.02%; Activity (B16-F10 [8]): 55.16%; viability at 0.02 µM (B16-F10 [9]): 81.5%; Activity (B16-F10 [10]): 12.4%; Activity (B16-F10 [11]): 5.68%; Activity (B16-F10 [12]): 0.466%
COc1cc(C(=O)N2c3ccccc3Cc3ccc4ccccc4c32)cc(OC)c1OC	< 5.00	< 5.00	< 5.00	< 5.00	
COC(=O)c1ccc2c(c1)N(C(=O)c1cc(OC)c(OC)c(OC)c1)c1cc(F)ccc1C2	< 5.00	5.90	6.20	5.93	
COc1cc(C(=O)N2c3cc(F)ccc3Cc3ccc(F)cc32)cc(OC)c1OC	< 5.00	5.70	6.18	5.69	
COc1cc(C(=O)N2c3cccc(Cl)c3Cc3c(C)ccc(C)c32)cc(OC)c1OC	6.37	6.07	6.74	6.23	

More lines, main results first:

pIC50 (HCT-116)	pIC50 (B16-F10 [1])	pIC50 (HepG2)	pIC50 (HeLa)	Structure (SMILES)	further results
< 5.00	5.16	< 5.00	< 5.00	COc1cc(C(=O)N2c3ccccc3Cc3ccc(F)cc32)cc(OC)c1OC	
6.59	6.84	6.80	5.92	COc1cc(C(=O)N2c3ccccc3Cc3ccccc32)cc(OC)c1OC	pIC50 (Tubulin): 5.80
5.03	5.14	5.48	5.08	COC(=O)c1ccc2c(c1)N(C(=O)c1cc(OC)c(OC)c(OC)c1)c1ccccc1C2	
6.59	6.84	7.46	7.01	COc1cc(C(=O)N2c3ccccc3Cc3cc(F)ccc32)cc(OC)c1OC	
6.99	7.10	7.04	6.98	COc1ccc2c(c1)Cc1ccccc1N2C(=O)c1cc(OC)c(OC)c(OC)c1	
6.37	6.68	7.24	6.72	COc1cc(C(=O)N2c3ccccc3Cc3ccc(Cl)cc32)cc(OC)c1OC	
6.89	7.08	7.08	6.88	COc1cc(C(=O)N2c3ccccc3Cc3cc(C)ccc32)cc(OC)c1OC	
6.68	7.04	6.79	6.93	COc1cc(C(=O)N2c3ccccc3Cc3cccc(OC)c32)cc(OC)c1OC	
6.60	6.80	7.15	7.07	COc1cc(C(=O)N2c3ccccc3Cc3c(Cl)cccc32)cc(OC)c1OC	
6.72	6.97	7.16	7.11	COc1cc(C(=O)N2c3ccccc3Cc3cc(Cl)ccc32)cc(OC)c1OC	
5.16	5.26	5.54	5.16	COc1cc(C(=O)N2c3ccccc3Cc3ccc(C(F)(F)F)cc32)cc(OC)c1OC	
< 5.00	6.12	6.67	6.17	COc1cc(C(=O)N2c3cc(F)ccc3Cc3cc4ccccc4cc32)cc(OC)c1OC	
6.76	7.04	6.99	6.04	COc1cc(C(=O)N2c3ccccc3Cc3c(C)cccc32)cc(OC)c1OC	
